These results are taken from patent US8101760B2, “Glucocorticoid receptor modulator and methods of use” (Eli Lilly and Company, priority 2007, dated 2012).

In the assay the target is T1, human GR (glucocorticoid receptor) (Homo sapiens, UniProt P04150).
T1 construct: expressed in transfected cells; host or cells: HEK293 (lysate, '293-GR lysate')
T1 sequence (P04150 1-777): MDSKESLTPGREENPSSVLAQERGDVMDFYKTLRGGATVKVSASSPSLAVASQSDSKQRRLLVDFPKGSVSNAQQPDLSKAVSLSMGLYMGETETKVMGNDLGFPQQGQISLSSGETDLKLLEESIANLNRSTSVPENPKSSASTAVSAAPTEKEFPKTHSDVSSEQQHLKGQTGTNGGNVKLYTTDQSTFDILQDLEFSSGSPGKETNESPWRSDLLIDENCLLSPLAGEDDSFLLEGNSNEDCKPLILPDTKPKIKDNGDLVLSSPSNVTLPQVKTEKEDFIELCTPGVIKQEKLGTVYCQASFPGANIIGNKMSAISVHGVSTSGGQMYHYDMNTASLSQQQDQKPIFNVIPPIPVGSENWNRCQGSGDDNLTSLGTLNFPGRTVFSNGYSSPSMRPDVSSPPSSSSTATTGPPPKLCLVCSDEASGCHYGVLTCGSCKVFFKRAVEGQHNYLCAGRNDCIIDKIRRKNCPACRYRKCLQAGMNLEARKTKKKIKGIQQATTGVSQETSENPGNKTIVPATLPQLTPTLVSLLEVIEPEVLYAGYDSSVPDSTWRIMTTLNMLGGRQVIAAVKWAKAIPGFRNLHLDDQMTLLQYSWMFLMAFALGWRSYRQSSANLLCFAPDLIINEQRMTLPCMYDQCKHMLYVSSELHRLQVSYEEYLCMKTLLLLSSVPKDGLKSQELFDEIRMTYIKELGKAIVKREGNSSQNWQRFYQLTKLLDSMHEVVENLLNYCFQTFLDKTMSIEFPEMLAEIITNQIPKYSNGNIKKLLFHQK
The assay is described as follows: Nuclear hormone receptor binding assay, GR. The note with it: HEK293 cell lysate expressing human GR, [3H]-dexamethasone; mean of 5 determinations. On the procedure: Cell lysates from human embryonic kidney HEK293 cells overexpressing human GR (glucocorticoid receptor), AR (androgen receptor), MR (mineralocorticoid receptor), or PR (progesterone receptor) are used for receptor-ligand competition binding assays to determine Ki values.
Briefly, steroid receptor competition binding assays are run in a buffer containing 20 mM Hepes buffer (pH=7.6), 0.2 mM EDTA, 75 mM NaCl, 1.5 mM MgCl2, 20% glycerol, 20 mM sodium molybdate, 0.2 mM DTT (dithiothreitol), 20 μg/mL aprotinin and 20 μg/mL leupeptin. Typically, steroid receptor binding assays include radio-labeled ligands, such as 0.3 nM [^3H]-dexamethasone for GR binding, 0.36 nM [^3H]-methyltrienolone for AR binding, 0.25 nM [^3H]-aldosterone for MR binding, and 0.29 nM [^3H]-methyltrienolone for PR binding, and either 20 μg 293-GR lysate, 22 μg 293-AR lysate, 20 μg 293-MR lysate or 40 μg 293-PR lysate per well. Assays are typically run in 96-well format. Competing test compounds are added at various concentrations ranging from about 0.01 nM to 10 μM. Non-specific binding is determined in the presence of 500 nM dexamethasone for GR binding, 500 nM aldosterone for MR binding, or 500 nM methyltrienolone for AR and PR binding. […] After an incubation of 2 hours, plates are read in a Wallac Microbeta counter. […]

One may read the Ki as the equilibrium dissociation constant of an inhibitor or competing ligand from its target. For `CC/C(=C1\c2ccc(Cl)cc2OCc2ncccc21)c1cccc(NS(C)(=O)=O)c1` [Compound (I), (E)-N-{3-[1-(8-Chloro-11H-10-oxa-1-aza-dibenzo[a,d]cyclohepten-5-ylidene)-propyl]-phenyl}-methanesulfonamide], the Ki is 0.35 nM.
